From patent publication US20150328109A1, “DERMAL COMPOSITIONS CONTAINING UNNATURAL HYGROSCOPIC AMINO ACIDS” (MEDPHARM LIMITED, priority 2012, published 2015)
Where two headings read alike, the source gives them in different places. One block for each compound: values may come before it.

Assays:
RHE tissues [1] = conditions: cited from earlier work
[2] = Deliquescence relative humidity (DRH) of a saturated solution in a sealed vessel at 32° C.; format: physicochemical; conditions: saturated solution in water (1 mL), 24 hours
Procedure: This experiment was to measure the deliquescence relative humidity (DRH) caused by a saturated amino acid solution in a sealed vessel at 32° C.; the lower the DRH, the greater the water holding capacity of the solution measured. Deliquescence relative humidity is the relative humidity at which the compound deliquesces, i.e. the relative humidity in which the compound absorbs so much water that it dissolves within the absorbed water.
The apparatus is maintained at 32° C. The temperature of 32° C. was chosen for being the temperature of outer stratum corneum. As the amino acids are to eventually be delivered to the outer layer of the skin, then the water holding capacity of these compounds at 32° C. is important.
The saturated solution is prepared as above by adding the amino acid to water (1 mL, 32° C.), whilst swirling. The total amino acid is weighed before adding to the water and the remaining amino acid so that the mass of compound used can be determined. The saturated solution (1 mL, 32° C.) is then transferred into the vial, again because of partial molar volume causing a change in volume by the addition of the amino acid to the water.
The temperature and % RH (% Relative Humidity) shown on the thermo-hygrometer are recorded every 30 minutes until the % RH remains constant. The temperature confirms that the temperature experienced by the sample is 32° C.

RHE tissues [3] = assay: RHE irritation assessment Method 2: Mattek's MTT effective time (ET-50) assay; format: cell-based, human
Description: Method 1 was used to investigate the potential for alpha-hydroxylglycine (α-H-G) and L-homoserine (L-h-S) to cause skin irritation. The protocol is primarily designed and validated for single compounds rather than solutions. Therefore to provide further insight into the potential of N-hydroxyserine and N-hydroxylglycine to cause skin irritation a second protocol was investigated using Mattek's MTT effective time (ET-50) assay which is designed to test mixtures of compounds. In addition two commercially available amino acid related compound (L-serine and glycine) were selected and tested as comparators for N-hydroxyserine and N-hydroxylglycine. […] As a general guideline, the following groupings can be used in assigning expected in vivo irritancy responses based on the ET-50 results obtained: The irritation assessment of the solutions was performed using the protocol described below. Each of the test solutions; […] Damaged tissues were discarded. • (iii) The tissue were transferred into the assay medium and incubated at 37° C., 5% CO2 until the application of the test solutions; […] The working MTT solution was prepared using the following procedure: • (i) MTT concentrate was removed from the freezer and allowed to thaw. The concentrate was diluted with the MTT diluent solution (1 mL of concentrate to 4 mL of MTT diluent solution). • (ii) MTT solution from Step (i) was centrifuged at a g-force of 300 for 5 min to remove any particulates. • (iii) The supernatant of the MTT solution from Step (ii) was stored in the dark at 4° C. for a maximum period of 24 h and used as required. […] The plates were incubated for 3 h (+/−5 min) at 37° C., 5% CO2 and 95% humidified atmosphere. • (vi) The treated tissues were subsequently transferred into a new plate filled with 1 mL of extractant solution. • (vii) The plates were sealed using Parafilm® to stop evaporation and protected from light using foil before extract at 2-8° C. to minimise evaporation. • (viii) Following extraction the RHE tissue were removed from the wells and an additional 1 mL of extractant solution was added. Using a pipette the extraction solution was mixed and made visually homogenous. • (ix) The solution from Step (viii) was transferred in to n=3 wells (200 μL per well) using an automatic pipette of a 96 well plate and the optical density was measured at a wavelength of 570 nm.

[4] = cited from earlier work
[5] = In vitro permeation of metronidazole through epidermal membrane in Franz type diffusion cells after amino acid pre-treatment; format: in vitro ADME, Human; conditions: maximal enhancement of the drug's permeation by amino acid pre-treatment
Procedure: (§1) Acyclovir (ACV), metronidazole and diclofenac diethylamine (DDEA) were analysed using HPLC, using of a Waters Alliance Separations Module and Waters detector. The temperature of the column and samples were maintained at 45±2° C. and 5.0±2° C., respectively. A Kinetix™ C-18 (Phenomenex, USA) column (150 mm×4.6 mm 5 μm particle size) with a guard column (Phenomenex USA, C-18 4.0×3.0 mm) was employed as the stationary phase. The mobile phase was three part; mobile phase A, water; mobile phase B, methanol; and mobile phase C, 10 mM ammonium phosphate buffer pH 2.5. The mobile phase was run using a gradient flow (Table 2) with a flow rate of 0.8 mL/min. Samples were run for 12 minutes with an injection volume of 10 μL. Acyclovir, metronidazole and DDEA were processed at a wavelength of 276 nm, with approximate retention times of 4.7, 6.5, and 8.7 min, respectively. Calibration curves were constructed from a series of standards prepared by serial dilution in conjunction with separately prepared quality controls. […] Data were recorded and analysed using Empower Pro^3 Software. […]
(§2) Three experiments were performed, one for each API (Acyclovir, metronidazole and DDEA). […] The integrity of the epidermal membrane was assessed using electrical resistance to ensure the epidermal membrane was intact. […] Samples were analysed using HPLC and the level of each API that had permeated was quantified.

RHE tissues [6] = assay: RHE irritation assessment Method 1: SkinEthic Skin Irritation Test-42 bis assay (MTT), plus 24 h contact time; format: cell-based, human; conditions: 42 min and 24 h exposure, 5 and 1% w/v α-H-G, 10 and 1% w/v L-h-S in water
Description: The purpose of this experiment was to investigate the potential of alpha-hydroxyglycine (α-H-G) and L-homoserine (L-h-S) to cause skin irritation. The method was based on the validated SOP for the “The SkinEthic Skin Irritation Test-42 bis assay” in accordance to OECD guideline Test No. 439: In Vitro Skin Irritation. The protocol is provided in Section 1.2. Further details on the method can be found in the SkinEthic™ RHE SOP, Version 2.1 (July 2009), SkinEthic skin irritation test-42 bis test method for the prediction of acute skin irritation of chemicals: 42 minutes application+42 hours post-incubation. Available at: [http://ecvam.jrc.ec.europa.eu].
In addition, a further experiment was performed where the contact time of the test solution with the tissue was increased to 24 h. Following which point an MTT assay was used to determine the tissue viability and the test solutions potential to cause irritation.
The following steps were completed on receipt of the tissues: • (i) Wells of 6-well plates were filled with 1 mL growth culture medium. • (ii) Tissue were removed from their packaging, cleaned to remove the transport agarose and inspected for signs of damage; damaged tissues were discarded. • (iii) The tissue were transferred into the growth culture medium then incubated at 37° C., 5% CO2 until application of the test solution.
1.2.1.1.6 Applications of 5 and 1% w/v α-H-G and 10 and 1% w/v L-h-S and Controls • (i) 16 μL±0.5 μL of the test solutions (5% w/v α-hydroxyglycine (α-H-G) in water, 1% w/v α-hydroxyglycine (α-H-G) in water, 10% w/v L-homoserine (L-h-S) in water, 1% w/v L-homoserine (L-h-S) in water) and negative (PBS) and positive (5% SDS) controls were dispensed onto the top of the epidermal tissue, using positive displacement pipette. […]

[7] = Snake study: water uptake into snake skin after treatment with amino acid solution; design: species or system Elaphe guttata, the American corn snake; conditions: 24 h treatment with 1.33M amino acid solution, dried, then 40% RH
Procedure: • All experiments were performed in triplicate (i.e. three separate solutions, three pieces of skin, one per solution). […] Each piece was weighed and placed directly into one the of the amino acid solutions, one piece of snake skin per solution. • After 1 hour, the snake skin was removed from the solution and blotted dry on filter paper. The weight of the snake skin was recorded before the same snake skin was returned to the amino acid solution. • After an additional 23 hours (24 hours in total), the snake skin was again blotted dry on filter paper and weighed. • The snake skin, now having absorbed the test amino acid, was then placed in a vacuum desiccator over silica (0% RH) for 48 hours before being weighed.
• A 10% w/w concentration solution of each compound is made by stirring the compound (100 mg) in water (1 mL). Three separate solutions of each compound are made separately so that the experiment can be carried out in triplicate simultaneously. […] The weight of the snake skin is recorded before the same snake skin is returned to the same compound solution. • After an additional 23 hours (24 hours in total), the snake skin is again blotted dry on filter paper and weighed. • The snake skin is then placed in a vacuum desiccator over silica (0% relative humidity (RH)) for 48 hours before being weighed. […]

[8] = In vitro permeation of diclofenac diethylamine (DDEA) through epidermal membrane in Franz type diffusion cells after amino acid pre-treatment; format: in vitro ADME, Human; conditions: maximal enhancement of the drug's permeation by amino acid pre-treatment
Procedure: as §1, §2

[9] = mass used printed beside the name

Compound: Triton X-100 [1% Triton X-100]
ET-50 (hrs), general guideline examples (RHE tissues [1]): 4-12 moderate to mild hrs

Compound: N[C@@H](CS)C(=O)O [Cysteine]
DRH [2, 9]: 89.6%

Compound: O=[N+]([O-])O [conc. Nitric acid, Nitric acid]
ET-50 (hrs), general guideline examples (RHE tissues [1]; guideline groupings of the assay): <0.5 strong/severe, possible corrosive hrs

Compound: N[C@@H](CC(=O)O)C(=O)O [Aspartic acid]
DRH [2, 9]: 100.0%

Compound: C[C@H](N)C(=O)O [Alanine]
DRH [2, 9]: 83.1%

Compound: N[C@H](CO)C(=O)O [D-serine]
DRH ([2]; D-serine 0.95 g): 85.40% | DRH ([2]; D-serine 1.2 g): 82.13%

Compound: NC(=O)C[C@H](N)C(=O)O [Asparagine]
DRH [2, 9]: 91.2%

Compound: O=[N+]([O-])[O-].O=[N+]([O-])[O-].[Zn+2] [Zinc Nitrate]
DRH [2, 9]: 45.8%

Now from value to compound, other results behind:

DRH [2, 9]: 86.0%
Compound: C[C@@H](O)[C@H](N)C(=O)O [Threonine]

DRH [2, 9]: 79.13%
Compound: NCC(=O)O [Glycine, reference compound]
expected in vivo irritancy from ET-50 (RHE tissues [3]): non-irritants | impact on the viability of the RHE tissues (RHE tissues [3]): no significant impact

ER (drug absorption enhancement factor) [5]: 15
Compound: Cc1ncc([N+](=O)[O-])n1CCO [Metronidazole]
Log P [4]: −0.02

DRH [2, 9]: 44.6%
Compound: O=C(O)[C@@H]1CCCN1 [L-Proline]

DRH [2, 9]: 79.73% | DRH ([2]; mass used printed beside the name, listed as Hydroxyglycine): 79.7%
Compound: NC(O)C(=O)O (stereo not drawn) [α-hydroxyglycine, 2-Amino-2-hydroxyacetic acid]
skin irritation potential (viability below 50% of negative control = irritant) (RHE tissues [6]; listed as alpha-hydroxyglycine): non-irritants | skin irritation potential (viability below 50% of negative control = irritant) (RHE tissues [6]; listed as α-H-G): non-irritating | average percentage weight increase after 24 h at 40% RH [7]: particularly advantageous properties | ET-50 (exposure time to reduce viability to 50% of the control) (RHE tissues [3]; 10% w/v N-H-S, 1% w/v N-H-G in water, dosing periods 2, 6 and 24 h): < 24 h | expected in vivo irritancy from ET-50 (RHE tissues [3]; 10% w/v N-H-S, 1% w/v N-H-G, 10% w/v L-Serine, 10% w/v Glycine in water): non-irritant

DRH [2, 9]: 75.03%
Compound: NC(N)=O [Urea]

DRH [2, 9]: 82.53%
Compound: N[C@@H](CO)C(=O)O [L-serine, reference compound]
expected in vivo irritancy from ET-50 (RHE tissues [3]): non-irritants | impact on the viability of the RHE tissues (RHE tissues [3]): no significant impact

ER (drug absorption enhancement factor) [8]: 19
Compound: O=C(O)Cc1ccccc1Nc1c(Cl)cccc1Cl [Diclofenac diethylamine]
Log P [4]: 0.85
